Consider one compound from US20190298650A1, “FORMULATION AND COMPOSITION FOR PREVENTING AND/OR DISSOLVING BIOFILM ON THE SKIN OF A DOMESTIC ANIMAL” (Dechra Veterinary Products LLC, priority 2018, published 2019).

For experiment [1], the system named is Pseudomonas spp isolates from clinical canine otitis cases. Briefly: Biofilm prevention assay (MIC read visually, then crystal violet OD570). Format: cell-based. The settings on record: 28 isolates, LBB, 24 h at 37° C., NAC alone. From the text:
One hundred Pseudomonas spp isolates from clinical canine otitis cases from the UK (96), Dubai (3) and Malta (1) were submitted to NationWide Laboratories Knutton (CAPL) for routine culture and susceptibility testing over a 12 month period. Four isolates were from two dogs with bilateral otitis.
The dilutions were made using a Broth (LBB).
Contents of the wells were discarded prior to washing three times in phosphate buffered saline (PBS) at pH 7.2. […] The contents were removed by micropipetting before plates rinsed thoroughly under running water. […] Plates were covered to prevent evaporation.

Experiment [2] concerns Pseudomonas spp isolates from clinical canine otitis cases (biofilm). Briefly: Biofilm breaking assay (crystal violet OD570 on a 24 h pre-formed biofilm). Format: cell-based. Conditions: only NAC 5 mg/mL, 14 isolates. As for the experimental part:
One hundred Pseudomonas spp isolates from clinical canine otitis cases from the UK (96), Dubai (3) and Malta (1) were submitted to NationWide Laboratories Knutton (CAPL) for routine culture and susceptibility testing over a 12 month period. Four isolates were from two dogs with bilateral otitis. […] Isolates were then stored frozen of beads (ProLab UK) at -20° C. […] Negative control wells, in triplicate, contained 180 μL of LBB and 20 μL of distilled, sterile water. Plates were then incubated for 24 hours at 37° C. Contents of the wells were discarded prior to washing three times in phosphate buffered saline (PBS) at pH 7.2. […] 100 μL of Luria-Bertani enrichment broth (LBB) and 100 μL of sterile, distilled water for negative control. […] For the biofilm breaking assay the following dilutions where tested. The dilutions were made using a Broth (LBB). […] Plates were then incubated for another 24 hours period. Contents of the wells were discarded prior to washing three times in phosphate buffered saline (PBS) at pH 7.2. […] The contents were removed by micropipetting before plates rinsed thoroughly under running water. […] Plates were covered to prevent evaporation.

In brackets after ≈: the same amount, converted by molar mass.

In experiment [1], `CC(=O)N[C@@H](CS)C(=O)O` [NAC, (2R)-2-acetamido-3-sulfanylpropanoic acid] registered an MIC of 50 mg/mL (≈ 306 mM). Besides, in experiment [2], the “optical density (OD570) Max.” value was 1.40, the “optical density (OD570) Mean” value is reported as 0.38, the “optical density (OD570) Median” value worked out at 0.26 and the “optical density (OD570) Min.” value is on record as −0.03.
